# Test results from ChEMBL document CHEMBL5303304, “EUbOPEN Chemogenomics Library - IncuCyte” (2023).
# Where “and” joins values, the source holds several entries; their conditions need not be identical. Equal values may be shown once.
# Columns and labels:
# Format in all cases: toxicity, cell-based
# [1] = tested on: HEK-293T; assay: Incucyte cell viability with HEK293T; settings: human, 10 µM, compound concentration 10 uM
# [2] = tested on: Fibroblast; assay: Incucyte cell viability with human fibroblast; settings: 10 µM, compound concentration 10 uM
# [3] = tested on: U2OS; assay: Incucyte cell viability with U2OS; settings: human, 10 µM, compound concentration 10 uM
# Further: unitless GR value; below 1 slowed growth and below 0 cell loss.
SMILES,"Growth Rate ([1]; 6 h, replicate number 1)","Growth Rate ([1]; 12 h, replicate number 2)","Growth Rate ([1]; 18 h, replicate number 2)","Growth Rate ([1]; 24 h, replicate number 2)","Growth Rate ([2]; 6 h, replicate number 1)","Growth Rate ([2]; 6 h, replicate number 2)","Growth Rate ([2]; 12 h, replicate number 2)","Growth Rate ([2]; 18 h, replicate number 2)","Growth Rate ([2]; 24 h, replicate number 2)","Growth Rate ([3]; 6 h, replicate number 2)","Growth Rate ([3]; 12 h, replicate number 2)","Growth Rate ([3]; 18 h, replicate number 2)","Growth Rate ([3]; 24 h, replicate number 1)","Growth Rate ([1]; 0 h, replicate number 2)","Growth Rate ([1]; 12 h, replicate number 1)","Growth Rate ([1]; 18 h, replicate number 1)","Growth Rate ([1]; 24 h, replicate number 1)","Growth Rate ([3]; 0 h, replicate number 1)","Growth Rate ([3]; 6 h, replicate number 1)","Growth Rate ([2]; 24 h, replicate number 1)",also measured
COC(=O)c1cc2c(cn1)[nH]c1ccccc12 [BETA-CCM],0.67,0.64,0.78,0.86,0.4,-0.82,0.65,0.98,0.9,0.6,0.95,1,0.98,,,,,,,,"Growth Rate ([2]; 0 h, replicate number 1): 0.3; Growth Rate ([2]; 12 h, replicate number 1): -1; Growth Rate ([3]; 0 h, replicate number 2): -0.72; Growth Rate ([3]; 12 h, replicate number 1): 0.72; Growth Rate ([3]; 18 h, replicate number 1): 0.85; Growth Rate ([3]; 24 h, replicate number 2): 0.97"
CC(=O)N1CCC(c2ccc(C(=O)NC3=NCCN3)cc2C(F)(F)F)CC1 [BI 0054],0.29,,,,,,0.87,0.82,0.88,,,0.92,,-0.32,0.6,0.87,0.81,0.95,0.82,,"Growth Rate ([2]; 0 h, replicate number 1): -1; Growth Rate ([3]; 12 h, replicate number 1): 0.97"
COc1ccc2c(O[C@@H]3C[C@H]4C(=O)N[C@]5(C(=O)O)CC5/C=C\CCCCC[C@H](NC(=O)OC5CCCC5)C(=O)N4C3)cc(-c3csc(NC(=O)C(C)C)n3)nc2c1C (some centres undefined) [BI 1230],0.86 and 0.76,,,0.34 and 0.67,,,-0.04 and -0.05,,,0.86,0.86,0.98,0.77 and 0.99,,0.92 and 0.77,0.86 and 0.65,0.7,0.55,0.71 and 0.63,0.07 and 0.17,"Growth Rate ([2]; 0 h, replicate number 2): 0.45; Growth Rate ([2]; 12 h, replicate number 1): 0.15 and 0.2; Growth Rate ([3]; 18 h, replicate number 1): 0.65 and 0.86; Growth Rate ([3]; 24 h, replicate number 2): 0.95"
O=C(N[C@H]1CCCCC/C=C\C2C[C@@]2(C(=O)O)NC(=O)[C@@H]2C[C@@H](Oc3ccncc3)CN2C1=O)OC1CCCC1 (some centres undefined) [BI 1675],,0.89,,0.89,0.23,0.39,,0.91,,,0.99,,0.89,-0.95,,,0.94,0.43,0.77,0.99,"Growth Rate ([1]; 0 h, replicate number 1): -0.15; Growth Rate ([1]; 6 h, replicate number 2): 0.64; Growth Rate ([2]; 12 h, replicate number 1): 0.84; Growth Rate ([3]; 12 h, replicate number 1): 0.68; Growth Rate ([3]; 18 h, replicate number 1): 0.77"
CCOCCn1cc(C(=O)Nc2ccc(-n3nc(-c4cccnc4)cc3C(F)(F)F)cn2)ccc1=O [BI 1935],0.1,0.27,0.43,0.51,,0.1,0.65,,,,0.89,,0.66,,0.36,0.41,0.48,,0.75,0.78,"Growth Rate ([1]; 6 h, replicate number 2): -0.06; Growth Rate ([2]; 0 h, replicate number 2): -0.02; Growth Rate ([2]; 12 h, replicate number 1): 0.59; Growth Rate ([2]; 18 h, replicate number 1): 0.83; Growth Rate ([3]; 12 h, replicate number 1): 0.52; Growth Rate ([3]; 18 h, replicate number 1): 0.7"
O=C(Nc1ccc(-n2nc(-c3cccnc3)cc2C(F)(F)F)cn1)c1ccc(-c2ccccc2)c(F)c1 [BI 2049],,,,,,,0.85,0.98,0.91,0.46,0.84,0.93,,0.47,,,,,0.83,0.99,"Growth Rate ([1]; 0 h, replicate number 1): -0.8; Growth Rate ([3]; 0 h, replicate number 2): -0.06; Growth Rate ([3]; 24 h, replicate number 2): 0.97"
CC(C)(C#Cc1ccc(NC(=O)COc2ccccc2C(=O)c2ccccc2)c(Cl)c1)C(=O)O [BI 2439],0.72,0.42,0.62,0.69,0.59,,0.66,,,0.76,0.68,0.81,,,0.81,0.78,0.79,,1,0.89,"Growth Rate ([1]; 6 h, replicate number 2): 0.41; Growth Rate ([2]; 0 h, replicate number 2): -0.64; Growth Rate ([2]; 18 h, replicate number 1): 0.92; Growth Rate ([3]; 0 h, replicate number 2): -0.27; Growth Rate ([3]; 24 h, replicate number 2): 0.76"
Cc1c(NC(=O)COc2ccc(Cl)cc2C(=O)c2cc(F)cc(C(F)(F)F)c2)ccc(C(=O)O)c1F [BI 2540],0.71,0.77,0.75,0.78,0.41,0.6,0.54,0.78,0.97,-0.88,,,0.89 and 0.98,0.89 and 0.62,,0.97,0.91,0.29,0.84,0.87 and 0.99,"Growth Rate ([1]; 0 h, replicate number 1): 0.45; Growth Rate ([1]; 6 h, replicate number 2): 0.58; Growth Rate ([2]; 0 h, replicate number 2): -0.2; Growth Rate ([2]; 12 h, replicate number 1): 0.77; Growth Rate ([2]; 18 h, replicate number 1): 0.85; Growth Rate ([3]; 0 h, replicate number 2): 0.41; Growth Rate ([3]; 12 h, replicate number 1): 0.64; Growth Rate ([3]; 18 h, replicate number 1): 0.91"
O=C(NC[C@@H]1[C@H]2CN(C(=O)OCc3cc(C(F)(F)F)cc(C(F)(F)F)c3)C[C@@H]12)c1ccc2[nH]nnc2c1 [BI 2545],-0.09,0.56,0.94,0.91,0.33,-0.08,0.94,,,-0.56,-0.13,0.23,,,0.5,0.6,0.76,,0.88,,"Growth Rate ([1]; 6 h, replicate number 2): -0.7; Growth Rate ([2]; 0 h, replicate number 2): -0.7; Growth Rate ([3]; 0 h, replicate number 2): -0.98; Growth Rate ([3]; 24 h, replicate number 2): 0.42"
Cc1nccc(COC(=O)N2C[C@@H]3[C@@H](CNC(=O)c4ccc5[nH]nnc5c4)[C@@H]3C2)n1 [BI 3017],0.95,,,0.99,,,,0.73,0.95,,0.99,,0.86,0.4,,,,0.85,0.95,,"Growth Rate ([1]; 0 h, replicate number 1): 0.2; Growth Rate ([2]; 18 h, replicate number 1): 0.93"
CCOC(=O)c1cc2cc(-c3cc(C(=O)NCc4ccc(C(=O)O)cc4)nn3C)ccc2[nH]1 [BI 4394],0.88,,,,,0.71,0.54,0.7,0.86,,0.96,0.99,0.96,0.34,0.98,0.93,,0.89,0.74,,"Growth Rate ([1]; 0 h, replicate number 1): 0.13"
